Results reported in PMC7304070 (Journal of the American Chemical Society, 2020).

Experiments:
[1] = Circular dichroism helicity; assay type: physicochemical; details: for Helicity, Stabilized (S): CD, 10 μM in 1:1 water:acetonitrile, molar ellipticity at 222 nm, stabilized peptide
MDM2-GST = MDM2-GST (Homo sapiens, UniProt Q00987); assay: Bacterial surface display; assay type: binding; details: for BSD Kd Ratio (NS/S): non-stabilized / stabilized Kd on bacterial surface
[2] = molecular target: MDM2 truncate (residues 10–118) (Homo sapiens, UniProt Q00987); assay: Bio-layer interferometry; assay type: binding; details: non-stabilized / stabilized Kd in solution (fold improvement upon stabilization)
MDM2 truncate (residues 10–118), sequence (Q00987 10-118): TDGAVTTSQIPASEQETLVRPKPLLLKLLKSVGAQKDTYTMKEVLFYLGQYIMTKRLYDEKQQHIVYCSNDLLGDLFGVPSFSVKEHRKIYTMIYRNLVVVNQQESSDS

MDM2-GST, sequence (Q00987 whole entry, the tested form may be a part): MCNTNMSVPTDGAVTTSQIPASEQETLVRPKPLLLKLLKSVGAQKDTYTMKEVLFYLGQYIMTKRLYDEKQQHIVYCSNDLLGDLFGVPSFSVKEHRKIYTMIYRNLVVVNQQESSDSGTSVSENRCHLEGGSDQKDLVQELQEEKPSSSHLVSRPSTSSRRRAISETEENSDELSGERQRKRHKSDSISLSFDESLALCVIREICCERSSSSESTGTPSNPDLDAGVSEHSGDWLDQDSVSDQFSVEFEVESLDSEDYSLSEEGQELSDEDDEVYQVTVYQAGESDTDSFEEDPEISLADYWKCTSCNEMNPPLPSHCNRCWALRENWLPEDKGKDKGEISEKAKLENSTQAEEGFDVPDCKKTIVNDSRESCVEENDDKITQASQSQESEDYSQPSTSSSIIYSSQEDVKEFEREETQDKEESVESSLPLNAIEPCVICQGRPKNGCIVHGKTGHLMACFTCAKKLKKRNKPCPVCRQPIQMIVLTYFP

Row | Sequence | Helicity, Stabilized (S) [1] [%] | BSD Kd Ratio (NS/S) (MDM2-GST) | BLI Kd Ratio (NS/S) [2] | further results
1 | QTFXDLWRLLXQN (sidechain bridge or staple) [SPD-M0-E(0)] | 41 |  |  | 
2 | QTFXDLWRLLXEN (sidechain bridge or staple) [SPD-M0-E(−1)] | 40 |  |  | 
3 | ETAXDLWRLLXEN (sidechain bridge or staple) [SPD-M0-E(−2)-F19A] | 50 |  |  | binding as displayed on the bacterial cell surface (MDM2-GST; negative controls, Figure S1): did not exhibit measurable binding

Further lines, with some results ahead:

Row | Helicity, Stabilized (S) [1] [%] | BSD Kd Ratio (NS/S) (MDM2-GST) | BLI Kd Ratio (NS/S) [2] | Sequence | further results
4 | 18 | 1.4 | 4.1 | GGTFXGYWADLXAF (sidechain bridge or staple) [SPD-M3-G1] | Helicity Ratio (S/NS) ([1]; stabilized / non-stabilized helicity): 1.1; improvement in affinity over the starting sequence SPD-M0-E(−2) (MDM2-GST; bacterial surface, stabilized, after 3 rounds of sorting, n = 3 independent trials of duplicates): ~5 fold
5 | 53 |  |  | ETFXDLWRLLXEN (sidechain bridge or staple) [SPD-M0-E(−2)] | 
6 |  | 6.6 | 9.4 | VLSFXDYWNLLXGS (sidechain bridge or staple) [SPD-M3-V1] | 
